According to patent publication US9765067B2, “Thiophen-2-yl-pyridin-2-yl-1H-pyrazole-4-carboxylic acid derivatives and the use thereof as soluble guanylate cyclase activators” (Novartis AG, priority 2014, dated 2017):

What follows are compounds tested against T1, soluble guanylate cyclase (human GUCYA3/GUCYB3) overexpressed in CHO cells (Homo sapiens, UniProt Q02108+Q02153) (assay: CHO cellular assay (cGMP production, HTRF)). Conditions: CHO K1 clone 8E10 overexpressing human sGC, Cisbio HTRF, 1 h room temperature, 1 mM IBMX, 20 uM ODQ, minimum quantification limit 0.5 nM.
T1 construct: expressed in transfected cells
T1 sequence (Q02108 1-690 partner): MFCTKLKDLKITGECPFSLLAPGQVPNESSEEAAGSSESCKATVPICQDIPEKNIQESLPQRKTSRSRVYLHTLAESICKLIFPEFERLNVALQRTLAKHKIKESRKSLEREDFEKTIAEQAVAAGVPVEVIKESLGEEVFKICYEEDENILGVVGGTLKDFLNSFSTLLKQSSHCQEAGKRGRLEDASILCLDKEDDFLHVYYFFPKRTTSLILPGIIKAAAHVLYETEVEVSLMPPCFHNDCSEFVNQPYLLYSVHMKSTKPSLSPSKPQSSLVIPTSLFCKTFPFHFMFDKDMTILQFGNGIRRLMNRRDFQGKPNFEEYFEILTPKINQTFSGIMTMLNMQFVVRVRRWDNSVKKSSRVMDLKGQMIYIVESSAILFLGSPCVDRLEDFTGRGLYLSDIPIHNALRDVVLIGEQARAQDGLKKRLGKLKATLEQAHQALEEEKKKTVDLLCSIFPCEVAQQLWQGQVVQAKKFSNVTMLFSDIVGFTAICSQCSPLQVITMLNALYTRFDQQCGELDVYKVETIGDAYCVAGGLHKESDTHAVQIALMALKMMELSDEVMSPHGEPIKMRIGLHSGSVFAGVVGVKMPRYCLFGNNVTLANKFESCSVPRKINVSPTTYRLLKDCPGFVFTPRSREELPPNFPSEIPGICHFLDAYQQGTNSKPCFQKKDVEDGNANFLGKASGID
T1 sequence (Q02153 1-619): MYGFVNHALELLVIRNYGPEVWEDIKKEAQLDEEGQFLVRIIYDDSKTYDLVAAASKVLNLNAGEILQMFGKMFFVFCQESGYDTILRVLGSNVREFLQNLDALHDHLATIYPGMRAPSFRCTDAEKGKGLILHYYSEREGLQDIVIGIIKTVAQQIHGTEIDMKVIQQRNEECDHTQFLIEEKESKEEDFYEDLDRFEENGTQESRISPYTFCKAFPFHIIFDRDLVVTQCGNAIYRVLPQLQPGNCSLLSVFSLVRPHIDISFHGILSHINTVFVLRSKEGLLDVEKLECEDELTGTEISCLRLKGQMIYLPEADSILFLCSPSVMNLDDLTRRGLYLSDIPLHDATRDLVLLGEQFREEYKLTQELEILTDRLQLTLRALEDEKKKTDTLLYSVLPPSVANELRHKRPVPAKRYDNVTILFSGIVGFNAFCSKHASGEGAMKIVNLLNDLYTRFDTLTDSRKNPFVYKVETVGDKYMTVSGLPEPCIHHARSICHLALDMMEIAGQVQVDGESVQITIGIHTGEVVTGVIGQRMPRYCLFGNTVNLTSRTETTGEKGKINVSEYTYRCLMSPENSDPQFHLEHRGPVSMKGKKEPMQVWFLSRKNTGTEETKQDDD
Type: cell-based
Text: Chinese hamster ovary (CHO) cells overexpressing soluble guanylate cyclase were generated to test the effect of sGC activators in a cellular context. Human cDNAs for GUCYA3 (RefSeq: NM_000856.3) and GUCYB3 (RefSeq: NM_000857.1) were amplified by PCR from a HUVEC (Human Umbilical Vein Endothelial Cells) cDNA library and cloned into mammalian expression vectors. CHO K1 cells (ATCC CCL-61) were transfected using Lipofectamine 2000 following manufacturer's instructions and stably expressing clones were identified by antibiotic selection. CHO GUCY clone 8E10 was used for subsequent experiments.
Cells were seeded at a density of 3000 cells/well in white 384-well proxyplates (Perkin Elmer) and incubated overnight, then the medium was removed and cells were washed with assay buffer (HBSS, 0.1% BSA, 1 mM IBMX, 20 uM ODQ). sGC activators were serially diluted in DMSO, then diluted in assay buffer prior to adding to cells (10 ul/well, final DMSO concentration 0.5%). Cells were incubated with compounds for 1 h room temperature, then assayed for cGMP production using Cisbio cGMP HTRF kit (62GM2PEC) according to manufacturer's instructions.
The EC50s are calculated based on the amount of cGMP interpolated from the standard curve, using a 4-parameter sigmoidal dose-response.

| EC50 [nM] | SMILES |
| --- | --- |
| 2.4 | CCc1c(C)sc(-c2cccc(-n3ncc(C(=O)O)c3C(F)(F)F)n2)c1COc1ccc(C2CCN(CC(F)(F)F)CC2)cc1C [Example 6-18, 1-(6-(4-Ethyl-5-methyl-3-((2-methyl-4-(1-(2,2,2-trifluoroethyl)piperidin-4-yl)phenoxy)methyl)thiophen-2-yl)pyridin-2-yl)-5-(trifluoromethyl)-1H-pyrazole-4-carboxylic acid] |
| 2 | O=C(O)c1cnn(-c2cccc(-c3sccc3COc3ccc(C4CCN(C(=O)C5CC5)CC4)cn3)n2)c1C(F)(F)F [Example 6-19, 1-(6-(3-(((5-(1-(Cyclopropanecarbonyl)piperidin-4-yl)pyridin-2-yl)oxy)methyl)thiophen-2-yl)pyridin-2-yl)-5-(trifluoromethyl)-1H-pyrazole-4-carboxylic acid] |
| ≤ 0.5 | CCC(=O)N1CCC(c2ccc(OCc3ccsc3-c3cccc(-n4ncc(C(=O)O)c4C(F)(F)F)n3)c(Cl)c2)CC1 [Example 7, 1-(6-(3-((2-Chloro-4-(1-propionylpiperidin-4-yl)phenoxy)methyl)thiophen-2-yl)pyridin-2-yl)-5-(trifluoromethyl)-1H-pyrazole-4-carboxylic acid] |
| ≤ 0.5 | O=C(O)c1cnn(-c2cccc(-c3sccc3COc3ccc(C4CCN(C(=O)C5CC5)CC4)cc3Cl)n2)c1C(F)(F)F [Example 8, 1-(6-(3-((2-Chloro-4-(1-(cyclopropanecarbonyl)piperidin-4-yl)phenoxy)methyl)thiophen-2-yl)pyridin-2-yl)-5-(trifluoromethyl)-1H-pyrazole-4-carboxylic acid] |
| ≤ 0.5 | Cc1cc(C2CCN(C(=O)C3CC3)CC2)ccc1OCc1ccsc1-c1cccc(-n2ncc(C(=O)O)c2C)n1 [Example 9, 1-(6-(3-((4-(1-(Cyclopropanecarbonyl)piperidin-4-yl)-2-methylphenoxy)methyl)thiophen-2-yl)pyridin-2-yl)-5-methyl-1H-pyrazole-4-carboxylic acid] |
| ≤ 0.5 | CCc1cc(OCc2ccsc2-c2cccc(-n3ncc(C(=O)O)c3C)n2)ccc1C1CCN(C(=O)C2CC2)CC1 [Example 10-1, 1-(6-(3-((4-(1-(Cyclopropanecarbonyl)piperidin-4-yl)-3-ethylphenoxy)methyl)thiophen-2-yl)pyridin-2-yl)-5-methyl-1H-pyrazole-4-carboxylic acid] |
| ≤ 0.5 | CCc1cc(OCc2ccsc2-c2cccc(-n3ncc(C(=O)O)c3CC)n2)ccc1C1CCN(C(=O)C2CC2)CC1 [Example 10-2, 1-(6-(3-((4-(1-(Cyclopropanecarbonyl)piperidin-4-yl)-3-ethylphenoxy)methyl)thiophen-2-yl)pyridin-2-yl)-5-ethyl-1H-pyrazole-4-carboxylic acid] |
| ≤ 0.5 | Cc1cc(COc2ccc(C3CCN(C(=O)C4CC4)CC3)cc2C)c(-c2cccc(-n3ncc(C(=O)O)c3C)n2)s1 [Example 10-3, 1-(6-(3-((4-(1-(Cyclopropanecarbonyl)piperidin-4-yl)-2-methylphenoxy)methyl)-5-methylthiophen-2-yl)pyridin-2-yl)-5-methyl-1H-pyrazole-4-carboxylic acid] |
| ≤ 0.5 | CCc1cc(OCc2cc(C)sc2-c2cccc(-n3ncc(C(=O)O)c3C)n2)ccc1C1CCN(C(=O)C2CC2)CC1 [Example 10-4, 1-(6-(3-((4-(1-(Cyclopropanecarbonyl)piperidin-4-yl)-3-ethylphenoxy)methyl)-5-methylthiophen-2-yl)pyridin-2-yl)-5-methyl-1H-pyrazole-4-carboxylic acid] |
| ≤ 0.5 | CCc1cc(OCc2c(C)csc2-c2cccc(-n3ncc(C(=O)O)c3C(F)(F)F)n2)ccc1C1CCN(C(=O)C2CC2)CC1 [Example 10-5, 1-(6-(3-((4-(1-(Cyclopropanecarbonyl)piperidin-4-yl)-3-ethylphenoxy)methyl)-4-methylthiophen-2-yl)pyridin-2-yl)-5-(trifluoromethyl)-1H-pyrazole-4-carboxylic acid] |
| ≤ 0.5 | CCc1c(C(=O)O)cnn1-c1cccc(-c2sc(C)c(C)c2COc2ccc(C3CCN(C(=O)C4CC4)CC3)cc2C)n1 [Example 10-6, 1-(6-(3-((4-(1-(Cyclopropanecarbonyl)piperidin-4-yl)-2-methylphenoxy)methyl)-4,5-dimethylthiophen-2-yl)pyridin-2-yl)-5-ethyl-1H-pyrazole-4-carboxylic acid] |
| 37 | Cc1c(OCc2ccsc2-c2cccc(-n3ncc(C(=O)O)c3C(F)(F)F)n2)ccc2c1CCN(Cc1ccccn1)C2 [Example 10-7, 1-(6-(3-(((5-Methyl-2-(pyridin-2-ylmethyl)-1,2,3,4-tetrahydroisoquinolin-6-yl)oxy)methyl)thiophen-2-yl)pyridin-2-yl)-5-(trifluoromethyl)-1H-pyrazole-4-carboxylic acid] |
| 15 | Cc1cc(C2CCN(C(=O)C3CC3)CC2)ccc1OC(C)c1ccsc1-c1cccc(-n2ncc(C(=O)O)c2C(F)(F)F)c1 (stereo not drawn) [Example 10-8, 1-(3-(3-(1-(4-(1-(Cyclopropanecarbonyl)piperidin-4-yl)-2-methylphenoxy)ethyl)thiophen-2-yl)phenyl)-5-(trifluoromethyl)-1H-pyrazole-4-carboxylic acid] |
| 57 | Cc1cc(C2CCN(CC(F)(F)F)CC2)ccc1OCc1c(C)csc1-c1cccc(-n2ncc(C(=O)O)c2C(F)(F)F)n1 [Example 10-9, 1-(6-(4-methyl-3-((2-methyl-4-(1-(2,2,2-trifluoroethyl)piperidin-4-yl)phenoxy)methyl)thiophen-2-yl)pyridin-2-yl)-5-(trifluoromethyl)-1H-pyrazole-4-carboxylic acid] |
| 2 | Cc1cc(C2CCN(C(=O)CC3CC3)CC2)ccc1OCc1ccsc1-c1cccc(-n2ncc(C(=O)O)c2C(F)(F)F)n1 [Example 11, 1-(6-(3-((4-(1-(2-Cyclopropylacetyl)piperidin-4-yl)-2-methylphenoxy)methyl)thiophen-2-yl)pyridin-2-yl)-5-(trifluoromethyl)-1H-pyrazole-4-carboxylic acid] |
| ≤ 0.5 | Cc1cc(C2CCN(C(=O)C3CCC3)CC2)ccc1OCc1ccsc1-c1cccc(-n2ncc(C(=O)O)c2C(F)(F)F)n1 [Example 12-1, 1-(6-(3-((4-(1-(Cyclobutanecarbonyl)piperidin-4-yl)-2-methylphenoxy)methyl)thiophen-2-yl)pyridin-2-yl)-5-(trifluoromethyl)-1H-pyrazole-4-carboxylic acid] |
| 4.5 | Cc1cc(C2CCN(C(=O)C3CC3)CC2)ccc1OCc1ccsc1-c1cccc(-n2ncc(C(=O)O)c2C(F)(F)F)n1 [Example 12-2, 1-(6-(3-((4-(1-(Cyclopropanecarbonyl)piperidin-4-yl)-2-methylphenoxy)methyl)thiophen-2-yl)pyridin-2-yl)-5-(trifluoromethyl)-1H-pyrazole-4-carboxylic acid] |
| ≤ 0.5 | CCc1cc(OCc2cc(C)sc2-c2cccc(-n3ncc(C(=O)O)c3C(F)(F)F)n2)ccc1C1CCN(C(=O)CC2CC2)CC1 [Example 12-4, 1-(6-(3-((4-(1-(2-Cyclopropylacetyl)piperidin-4-yl)-3-ethylphenoxy)methyl)-5-methylthiophen-2-yl)pyridin-2-yl)-5-(trifluoromethyl)-1H-pyrazole-4-carboxylic acid] |
